The text below walks through data of PMC6706161, “A surface plasmon resonance-based method for monitoring interactions between G protein-coupled receptors and interacting proteins” (Journal of Biological Methods, 2016).

Usually Kd stands for the equilibrium constant for the complex coming apart.

No end group written: not given here.

This test concerns the target T1, S100B (Bos taurus, UniProt P02638).
T1 construct: S100B, purified from bovine brain; purchased Merck Millipore 559290; host or cells: bovine brain (tissue-purified)
T1 sequence (P02638 2-92 limits assumed): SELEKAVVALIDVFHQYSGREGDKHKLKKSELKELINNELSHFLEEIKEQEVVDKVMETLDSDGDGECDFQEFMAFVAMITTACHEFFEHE
Description: SPR (Biacore 3000) steady-state binding of S100B to immobilized peptide h5-HT7_IC3. As to conditions: 95% CI [3.93, 6.71], peptide amine-coupled to CM5 chip (about 1200 RU), mock-immobilized reference surface, analyte S100B purified from bovine brain, 0.38 to 12 µM (two experiments) and 1.25 to 40 µM (third), duplicates, running buffer 10 mM HEPES, 150 mM NaCl, 4 mM CaCl2, 0.005% Tween-20, pH 7.5, 25 °C, one-site binding model, three experiments, read-out: Kd (dissociation constant, affinity). An excerpt:
• Custom peptides (> 95% pure) can be obtained from a number of commercial sources. In our hands, peptides from Selleck Chemicals (Houston, TX) have worked well. • S100B, purified from bovine brain (Cat. # 559290; Merck Millipore, Darmstadt, Germany) • Sensor Chip CM5 (single: Cat. # BR-1003-99; pack of three chips: Cat. # BR-1000-12; GE Healthcare) • Plastic Vials, Ø 7 mm; pack of 1000 vials (Cat. # BR-1002-12; GE Healthcare) • Rubber Caps, type 3; pack of 600 caps (Cat. # BR-1005-02; GE Healthcare) • Immobilization buffers: 10 mM sodium acetate, pH 4.0 (Cat. # BR-1003-49) and pH 4.5 (Cat. # BR-1003-50; GE Healthcare); 1 × 50 ml each • HBS-EP (Cat. # BR100188, 6 x 200 ml; GE Healthcare) • NaOH (Cat. # S8045; Sigma-Aldrich, Stockholm, Sweden) • DMSO (Cat. # D2650; Sigma-Aldrich) • Amine Coupling Kit (contains EDC, NHS and 1.0 M ethanolamine-HCl pH 8.5; Cat. # BR100050; GE Healthcare) • HEPES (Cat. # H3375; Sigma-Aldrich) • NaCl (Cat. # S7653; Sigma-Aldrich) • CaCl2 · 2H2O (Cat. # C8106; Sigma-Aldrich) • Tween-20 (Cat. # P1379; Sigma-Aldrich) • EDTA disodium salt (Cat. # E5134; Sigma-Aldrich) • Syringe filters, 0.2 µm pore size (Cat. # 83.1826.001; Sarstedt, Helsingborg, Sweden) • Bottle top filtration unit, 0.45 µm pore size (Cat. # 83.1823.100; Sarstedt)
Running buffer with Ca2+: 10 mM HEPES, 150 mM NaCl, 4 mM CaCl2, 0.005% Tween-20; pH 7.5. Store at 4 °C between experiments. […]
(Surface plasmon resonance follows binding to a sensor surface in real time, without labels.)

Regarding KFPGFPRVEPDSVIALNGIV [h5-HT7_IC3], the Kd turned out to be 5.32 µM.
